Activity calls are given as the source filed them. The rule behind the calls is not given here.
System: NCI-H157
Experiment: Cytotoxicity against human NCI-H157 cells at 100 uM after 48 hrs by sulforhodamine B assay
Assay type: functional

Substance | Activity [%]
Tricyclohexylstannyl 2-(4-methoxy-2-nitrophenylcarbamoyl)benzoate | 59.3
Divinylstannanediyl bis 2-(4-methoxy-2-nitrophenylcarbamoyl)benzoate | 64.3
Dimethylstannanediyl bis 2-(4-methoxy-2-nitrophenylcarbamoyl)benzoate | 55.6

System: NCI-H157
Experiment: Cytotoxicity against human NCI-H157 cells at 10 uM after 48 hrs by sulforhodamine B assay
Assay type: functional

Substance | Activity [%]
Tricyclohexylstannyl 2-(4-methoxy-2-nitrophenylcarbamoyl)benzoate | 54
Divinylstannanediyl bis 2-(4-methoxy-2-nitrophenylcarbamoyl)benzoate | 61
Dimethylstannanediyl bis 2-(4-methoxy-2-nitrophenylcarbamoyl)benzoate | 53.4

System: NCI-H157
Experiment: Cytotoxicity against human NCI-H157 cells at 1 uM after 48 hrs by sulforhodamine B assay
Assay type: functional

Substance | Activity [%]
Tricyclohexylstannyl 2-(4-methoxy-2-nitrophenylcarbamoyl)benzoate | 50.6
Divinylstannanediyl bis 2-(4-methoxy-2-nitrophenylcarbamoyl)benzoate | 58.3
Dimethylstannanediyl bis 2-(4-methoxy-2-nitrophenylcarbamoyl)benzoate | 51.2

System: NCI-H157
Experiment: Cytotoxicity against human NCI-H157 cells at 0.1 uM after 48 hrs by sulforhodamine B assay
Assay type: functional

Substance | Activity [%]
Tricyclohexylstannyl 2-(4-methoxy-2-nitrophenylcarbamoyl)benzoate | 43.6
Divinylstannanediyl bis 2-(4-methoxy-2-nitrophenylcarbamoyl)benzoate | 55.4
Dimethylstannanediyl bis 2-(4-methoxy-2-nitrophenylcarbamoyl)benzoate | 48.9

System: Leishmania major
Experiment: Antileishmanial activity against Leishmania major promastigotes at 100 uM after 72 hrs by MTT assay relative to control
Assay type: functional

Substance | Activity [%]
Tricyclohexylstannyl 2-(4-methoxy-2-nitrophenylcarbamoyl)benzoate | 67.8
Divinylstannanediyl bis 2-(4-methoxy-2-nitrophenylcarbamoyl)benzoate | 60.9
Dimethylstannanediyl bis 2-(4-methoxy-2-nitrophenylcarbamoyl)benzoate | 62.3

System: Leishmania major
Experiment: Antileishmanial activity against Leishmania major promastigotes at 10 uM after 72 hrs by MTT assay relative to control
Assay type: functional

Substance | Activity [%]
Tricyclohexylstannyl 2-(4-methoxy-2-nitrophenylcarbamoyl)benzoate | 63.5
Divinylstannanediyl bis 2-(4-methoxy-2-nitrophenylcarbamoyl)benzoate | 55.4
Dimethylstannanediyl bis 2-(4-methoxy-2-nitrophenylcarbamoyl)benzoate | 54.7

System: Leishmania major
Experiment: Antileishmanial activity against Leishmania major promastigotes at 1 uM after 72 hrs by MTT assay relative to control
Assay type: functional

Substance | Activity [%]
Tricyclohexylstannyl 2-(4-methoxy-2-nitrophenylcarbamoyl)benzoate | 58.8
Divinylstannanediyl bis 2-(4-methoxy-2-nitrophenylcarbamoyl)benzoate | 48.8
Dimethylstannanediyl bis 2-(4-methoxy-2-nitrophenylcarbamoyl)benzoate | 51.6

System: Leishmania major
Experiment: Antileishmanial activity against Leishmania major promastigotes at 0.1 uM after 72 hrs by MTT assay relative to control
Assay type: functional

Substance | Activity [%]
Tricyclohexylstannyl 2-(4-methoxy-2-nitrophenylcarbamoyl)benzoate | 55.2
Divinylstannanediyl bis 2-(4-methoxy-2-nitrophenylcarbamoyl)benzoate | 43.3
Dimethylstannanediyl bis 2-(4-methoxy-2-nitrophenylcarbamoyl)benzoate | 48.4

System: Klebsiella pneumoniae
Experiment: Antibacterial activity against Klebsiella pneumoniae assessed as zone of inhibition after 24 to 48 hrs by well diffusion method
Assay type: functional

Substance | inhibition zone (IZ)
Tricyclohexylstannyl 2-(4-methoxy-2-nitrophenylcarbamoyl)benzoate | 18.5 mm
Divinylstannanediyl bis 2-(4-methoxy-2-nitrophenylcarbamoyl)benzoate | inactive
Dimethylstannanediyl bis 2-(4-methoxy-2-nitrophenylcarbamoyl)benzoate | 25.2 mm

System: Streptococcus pyogenes
Experiment: Antibacterial activity against Streptococcus pyogenes assessed as zone of inhibition after 24 to 48 hrs by well diffusion method
Assay type: functional

Substance | inhibition zone (IZ)
Tricyclohexylstannyl 2-(4-methoxy-2-nitrophenylcarbamoyl)benzoate | 16.7 mm
Divinylstannanediyl bis 2-(4-methoxy-2-nitrophenylcarbamoyl)benzoate | inactive
Dimethylstannanediyl bis 2-(4-methoxy-2-nitrophenylcarbamoyl)benzoate | inactive

System: Staphylococcus epidermidis
Experiment: Antibacterial activity against Staphylococcus epidermidis assessed as zone of inhibition after 24 to 48 hrs by well diffusion method
Assay type: functional

Substance | inhibition zone (IZ) [mm]
Tricyclohexylstannyl 2-(4-methoxy-2-nitrophenylcarbamoyl)benzoate | 12.3
Divinylstannanediyl bis 2-(4-methoxy-2-nitrophenylcarbamoyl)benzoate | 14.2
Dimethylstannanediyl bis 2-(4-methoxy-2-nitrophenylcarbamoyl)benzoate | 13.3

System: Staphylococcus aureus
Experiment: Antibacterial activity against Staphylococcus aureus assessed as zone of inhibition after 24 to 48 hrs by well diffusion method
Assay type: functional

Substance | inhibition zone (IZ)
Tricyclohexylstannyl 2-(4-methoxy-2-nitrophenylcarbamoyl)benzoate | inactive
Divinylstannanediyl bis 2-(4-methoxy-2-nitrophenylcarbamoyl)benzoate | inactive
Dimethylstannanediyl bis 2-(4-methoxy-2-nitrophenylcarbamoyl)benzoate | 13.7 mm

System: Serratia marcescens
Experiment: Antibacterial activity against Serratia marcescens assessed as zone of inhibition after 24 to 48 hrs by well diffusion method
Assay type: functional

Substance | inhibition zone (IZ)
Tricyclohexylstannyl 2-(4-methoxy-2-nitrophenylcarbamoyl)benzoate | inactive
Divinylstannanediyl bis 2-(4-methoxy-2-nitrophenylcarbamoyl)benzoate | 11 mm
Dimethylstannanediyl bis 2-(4-methoxy-2-nitrophenylcarbamoyl)benzoate | inactive

System: Pseudomonas aeruginosa
Experiment: Antibacterial activity against Pseudomonas aeruginosa assessed as zone of inhibition after 24 to 48 hrs by well diffusion method
Assay type: functional

Substance | inhibition zone (IZ)
Tricyclohexylstannyl 2-(4-methoxy-2-nitrophenylcarbamoyl)benzoate | 18.7 mm
Divinylstannanediyl bis 2-(4-methoxy-2-nitrophenylcarbamoyl)benzoate | inactive
Dimethylstannanediyl bis 2-(4-methoxy-2-nitrophenylcarbamoyl)benzoate | inactive

System: Escherichia coli
Experiment: Antibacterial activity against Escherichia coli assessed as zone of inhibition after 24 to 48 hrs by well diffusion method
Assay type: functional

Substance | inhibition zone (IZ)
Tricyclohexylstannyl 2-(4-methoxy-2-nitrophenylcarbamoyl)benzoate | inactive
Divinylstannanediyl bis 2-(4-methoxy-2-nitrophenylcarbamoyl)benzoate | inactive
Dimethylstannanediyl bis 2-(4-methoxy-2-nitrophenylcarbamoyl)benzoate | 1.77 mm

System: Klebsiella pneumoniae
Experiment: Antibacterial activity against Klebsiella pneumoniae assessed as zone of inhibition by measuring activity index after 24 to 48 hrs by well diffusion method relative to tetracycline
Assay type: functional, organism-based

Substance | Activity index
Tricyclohexylstannyl 2-(4-methoxy-2-nitrophenylcarbamoyl)benzoate | 1.32
Dimethylstannanediyl bis 2-(4-methoxy-2-nitrophenylcarbamoyl)benzoate | 1.8

System: Klebsiella pneumoniae
Experiment: Antibacterial activity against Klebsiella pneumoniae assessed as zone of inhibition by measuring activity index after 24 to 48 hrs by well diffusion method relative to penicillin G
Assay type: functional, organism-based

Substance | Activity_index
Divinylstannanediyl bis 2-(4-methoxy-2-nitrophenylcarbamoyl)benzoate | inactive

System: Klebsiella pneumoniae
Experiment: Antibacterial activity against Klebsiella pneumoniae assessed as zone of inhibition by measuring activity index after 24 to 48 hrs by well diffusion method relative to ampicillin
Assay type: functional, organism-based

Substance | Activity index
Tricyclohexylstannyl 2-(4-methoxy-2-nitrophenylcarbamoyl)benzoate | 3.09
Dimethylstannanediyl bis 2-(4-methoxy-2-nitrophenylcarbamoyl)benzoate | 4.2

System: Klebsiella pneumoniae
Experiment: Antibacterial activity against Klebsiella pneumoniae assessed as zone of inhibition by measuring activity index after 24 to 48 hrs by well diffusion method relative to amoxicillin
Assay type: functional, organism-based

Substance | Activity index
Tricyclohexylstannyl 2-(4-methoxy-2-nitrophenylcarbamoyl)benzoate | 3.09
Dimethylstannanediyl bis 2-(4-methoxy-2-nitrophenylcarbamoyl)benzoate | 4.2

System: Streptococcus pyogenes
Experiment: Antibacterial activity against Streptococcus pyogenes assessed as zone of inhibition by measuring activity index after 24 to 48 hrs by well diffusion method relative to tetracycline
Assay type: functional, organism-based

Substance | Activity_index
Divinylstannanediyl bis 2-(4-methoxy-2-nitrophenylcarbamoyl)benzoate | inactive
Dimethylstannanediyl bis 2-(4-methoxy-2-nitrophenylcarbamoyl)benzoate | inactive

System: Streptococcus pyogenes
Experiment: Antibacterial activity against Streptococcus pyogenes assessed as zone of inhibition by measuring activity index after 24 to 48 hrs by well diffusion method relative to penicillin G
Assay type: functional, organism-based

Substance | Activity_index
Divinylstannanediyl bis 2-(4-methoxy-2-nitrophenylcarbamoyl)benzoate | inactive
Dimethylstannanediyl bis 2-(4-methoxy-2-nitrophenylcarbamoyl)benzoate | inactive

System: Streptococcus pyogenes
Experiment: Antibacterial activity against Streptococcus pyogenes assessed as zone of inhibition by measuring activity index after 24 to 48 hrs by well diffusion method relative to ampicillin
Assay type: functional, organism-based

Substance | Activity_index
Divinylstannanediyl bis 2-(4-methoxy-2-nitrophenylcarbamoyl)benzoate | inactive
Dimethylstannanediyl bis 2-(4-methoxy-2-nitrophenylcarbamoyl)benzoate | inactive

System: Streptococcus pyogenes
Experiment: Antibacterial activity against Streptococcus pyogenes assessed as zone of inhibition by measuring activity index after 24 to 48 hrs by well diffusion method relative to amoxicillin
Assay type: functional, organism-based

Substance | Activity_index
Divinylstannanediyl bis 2-(4-methoxy-2-nitrophenylcarbamoyl)benzoate | inactive
Dimethylstannanediyl bis 2-(4-methoxy-2-nitrophenylcarbamoyl)benzoate | inactive

System: Staphylococcus epidermidis
Experiment: Antibacterial activity against Staphylococcus epidermidis assessed as zone of inhibition by measuring activity index after 24 to 48 hrs by well diffusion method relative to tetracycline
Assay type: functional, organism-based

Substance | Activity index
Tricyclohexylstannyl 2-(4-methoxy-2-nitrophenylcarbamoyl)benzoate | 1.23
Divinylstannanediyl bis 2-(4-methoxy-2-nitrophenylcarbamoyl)benzoate | 1.42
Dimethylstannanediyl bis 2-(4-methoxy-2-nitrophenylcarbamoyl)benzoate | 1.33

System: Staphylococcus epidermidis
Experiment: Antibacterial activity against Staphylococcus epidermidis assessed as zone of inhibition by measuring activity index after 24 to 48 hrs by well diffusion method relative to amoxicillin
Assay type: functional, organism-based

Substance | Activity index
Tricyclohexylstannyl 2-(4-methoxy-2-nitrophenylcarbamoyl)benzoate | 6.17
Divinylstannanediyl bis 2-(4-methoxy-2-nitrophenylcarbamoyl)benzoate | 7.11
Dimethylstannanediyl bis 2-(4-methoxy-2-nitrophenylcarbamoyl)benzoate | 6.65

System: Staphylococcus aureus
Experiment: Antibacterial activity against Staphylococcus aureus assessed as zone of inhibition by measuring activity index after 24 to 48 hrs by well diffusion method relative to tetracycline
Assay type: functional, organism-based

Substance | Activity_index
Tricyclohexylstannyl 2-(4-methoxy-2-nitrophenylcarbamoyl)benzoate | inactive
Divinylstannanediyl bis 2-(4-methoxy-2-nitrophenylcarbamoyl)benzoate | inactive

System: Staphylococcus aureus
Experiment: Antibacterial activity against Staphylococcus aureus assessed as zone of inhibition by measuring activity index after 24 to 48 hrs by well diffusion method relative to penicillin G
Assay type: functional, organism-based

Substance | Activity_index
Tricyclohexylstannyl 2-(4-methoxy-2-nitrophenylcarbamoyl)benzoate | inactive
Divinylstannanediyl bis 2-(4-methoxy-2-nitrophenylcarbamoyl)benzoate | inactive

System: Staphylococcus aureus
Experiment: Antibacterial activity against Staphylococcus aureus assessed as zone of inhibition by measuring activity index after 24 to 48 hrs by well diffusion method relative to ampicillin
Assay type: functional, organism-based

Substance | Activity_index
Tricyclohexylstannyl 2-(4-methoxy-2-nitrophenylcarbamoyl)benzoate | inactive
Divinylstannanediyl bis 2-(4-methoxy-2-nitrophenylcarbamoyl)benzoate | inactive

System: Staphylococcus aureus
Experiment: Antibacterial activity against Staphylococcus aureus assessed as zone of inhibition by measuring activity index after 24 to 48 hrs by well diffusion method relative to amoxicillin
Assay type: functional, organism-based

Substance | Activity_index
Tricyclohexylstannyl 2-(4-methoxy-2-nitrophenylcarbamoyl)benzoate | inactive
Divinylstannanediyl bis 2-(4-methoxy-2-nitrophenylcarbamoyl)benzoate | inactive

System: Serratia marcescens
Experiment: Antibacterial activity against Serratia marcescens assessed as zone of inhibition by measuring activity index after 24 to 48 hrs by well diffusion method relative to tetracycline
Assay type: functional, organism-based

Substance | Activity_index
Tricyclohexylstannyl 2-(4-methoxy-2-nitrophenylcarbamoyl)benzoate | inactive
Dimethylstannanediyl bis 2-(4-methoxy-2-nitrophenylcarbamoyl)benzoate | inactive

System: Serratia marcescens
Experiment: Antibacterial activity against Serratia marcescens assessed as zone of inhibition by measuring activity index after 24 to 48 hrs by well diffusion method relative to penicillin G
Assay type: functional

Substance | Activity index
Divinylstannanediyl bis 2-(4-methoxy-2-nitrophenylcarbamoyl)benzoate | 1.37

System: Serratia marcescens
Experiment: Antibacterial activity against Serratia marcescens assessed as zone of inhibition by measuring activity index after 24 to 48 hrs by well diffusion method relative to ampicillin
Assay type: functional

Substance | Activity index
Divinylstannanediyl bis 2-(4-methoxy-2-nitrophenylcarbamoyl)benzoate | 1.37

System: Serratia marcescens
Experiment: Antibacterial activity against Serratia marcescens assessed as zone of inhibition by measuring activity index after 24 to 48 hrs by well diffusion method relative to amoxicillin
Assay type: functional

Substance | Activity index
Divinylstannanediyl bis 2-(4-methoxy-2-nitrophenylcarbamoyl)benzoate | 1.84

System: Pseudomonas aeruginosa
Experiment: Antibacterial activity against Pseudomonas aeruginosa assessed as zone of inhibition by measuring activity index after 24 to 48 hrs by well diffusion method relative to tetracycline
Assay type: functional, organism-based

Substance | Activity index
Tricyclohexylstannyl 2-(4-methoxy-2-nitrophenylcarbamoyl)benzoate | 3.11

System: Pseudomonas aeruginosa
Experiment: Antibacterial activity against Pseudomonas aeruginosa assessed as zone of inhibition by measuring activity index after 24 to 48 hrs by well diffusion method relative to penicillin G
Assay type: functional, organism-based

Substance | Activity index
Tricyclohexylstannyl 2-(4-methoxy-2-nitrophenylcarbamoyl)benzoate | 3.11

System: Pseudomonas aeruginosa
Experiment: Antibacterial activity against Pseudomonas aeruginosa assessed as zone of inhibition by measuring activity index after 24 to 48 hrs by well diffusion method relative to ampicillin
Assay type: functional, organism-based

Substance | Activity_index
Divinylstannanediyl bis 2-(4-methoxy-2-nitrophenylcarbamoyl)benzoate | inactive
Dimethylstannanediyl bis 2-(4-methoxy-2-nitrophenylcarbamoyl)benzoate | inactive

System: Pseudomonas aeruginosa
Experiment: Antibacterial activity against Pseudomonas aeruginosa assessed as zone of inhibition by measuring activity index after 24 to 48 hrs by well diffusion method relative to amoxicillin
Assay type: functional, organism-based

Substance | Activity index
Tricyclohexylstannyl 2-(4-methoxy-2-nitrophenylcarbamoyl)benzoate | 3.11

System: Escherichia coli
Experiment: Antibacterial activity against Escherichia coli assessed as zone of inhibition by measuring activity index after 24 to 48 hrs by well diffusion method relative to tetracycline
Assay type: functional

Substance | Activity index
Dimethylstannanediyl bis 2-(4-methoxy-2-nitrophenylcarbamoyl)benzoate | 0.88

System: Escherichia coli
Experiment: Antibacterial activity against Escherichia coli assessed as zone of inhibition by measuring activity index after 24 to 48 hrs by well diffusion method relative to penicillin G
Assay type: functional, organism-based

Substance | Activity_index
Divinylstannanediyl bis 2-(4-methoxy-2-nitrophenylcarbamoyl)benzoate | inactive
Dimethylstannanediyl bis 2-(4-methoxy-2-nitrophenylcarbamoyl)benzoate | inactive

System: Escherichia coli
Experiment: Antibacterial activity against Escherichia coli assessed as zone of inhibition by measuring activity index after 24 to 48 hrs by well diffusion method relative to ampicillin
Assay type: functional, organism-based

Substance | Activity_index
Divinylstannanediyl bis 2-(4-methoxy-2-nitrophenylcarbamoyl)benzoate | inactive
Dimethylstannanediyl bis 2-(4-methoxy-2-nitrophenylcarbamoyl)benzoate | inactive

System: Escherichia coli
Experiment: Antibacterial activity against Escherichia coli assessed as zone of inhibition by measuring activity index after 24 to 48 hrs by well diffusion method relative to amoxicillin
Assay type: functional, organism-based

Substance | Activity_index
Divinylstannanediyl bis 2-(4-methoxy-2-nitrophenylcarbamoyl)benzoate | inactive
Dimethylstannanediyl bis 2-(4-methoxy-2-nitrophenylcarbamoyl)benzoate | inactive

System: NCI-H157
Experiment: Cytotoxicity against human NCI-H157 cells after 48 hrs by sulforhodamine B assay
Assay type: functional, cell-based

Substance | Activity
Tricyclohexylstannyl 2-(4-methoxy-2-nitrophenylcarbamoyl)benzoate | Dose-dependent effect
Divinylstannanediyl bis 2-(4-methoxy-2-nitrophenylcarbamoyl)benzoate | Dose-dependent effect
Dimethylstannanediyl bis 2-(4-methoxy-2-nitrophenylcarbamoyl)benzoate | Dose-dependent effect

From ChEMBL document CHEMBL4138175, “Newly designed organotin(IV) carboxylates with peptide linkage: Synthesis, structural elucidation, physicochemical characterizations and pharmacological investigations” (Eur J Med Chem, 2018)
